Drawing on patent US11771738B2 (Zoetis Services LLC, priority 2018, dated 2023), this text covers minimal effective concentration and DiMf/DiL4 for 11 molecules.

Where two headings read alike, the source gives them in different places. A value given as a limit tells only on which side of the number the result lay.

What all share (assay type): cell-based
The subject of assay [1] is third stage larvae of Haemonchus contortus. The experiment in a line: Haemonchus contortus, Larvae Stage 3 (HcL3) In Vitro Assay. The following applies: Haemonchus contortus, 96 h.
In assay [2] the test system is microfilariae of Dirofilaria immitis. The experiment in a line: Dirofilaria immitis, Microfilaria (DiMf) In Vitro Assay. The following applies: Dirofilaria immitis, 72 h, read-out: DiMf MED, Minimum Effective Dose, D. immitis microfilariae motility, in vitro.
The test system of assay [3] is D. immitis L4 larvae. The experiment in a line: Dirofilaria immitis, L4 Stage (DiL4) In Vitro Assay. The following applies: for minimal effective concentration: Dirofilaria immitis, 72 h, read-out: DiL4 MED, Minimum Effective Dose, D. immitis L4 larvae motility, in vitro; for DiMf/DiL4: larval stage selectivity, ratio of DiMf MED to DiL4 MED.
The mark [4] stands for this setting: read-out: HcL3 MED, Haemonchus contortus third stage larvae in vitro, class mark appended to the Ex # in Table 3.
[5] abbreviates: read-out: HcL3 MED, Minimum Effective Dose, H. contortus third stage larvae, approximately 96 hours.
[6] abbreviates: read-out: HcL3 MED, approximately 96 hours incubation, multiple-resistant field isolate.

Regarding `CC(C)C[C@H]1C(=O)O[C@H](Cc2ccc(Cc3cncnc3C(F)F)cc2)C(=O)N(C)[C@@H](CC(C)C)C(=O)O[C@H](C)C(=O)N(C)[C@@H](CC(C)C)C(=O)O[C@H](Cc2ccc(Cc3cncnc3C(F)F)cc2)C(=O)N(C)[C@@H](CC(C)C)C(=O)O[C@H](C)C(=O)N1C` [Example 3-321, (3S,6R,9S,12R,15S,18R,21S,24R)-6,18-bis(4-((4-(difluoromethyl)pyrimidin-5-yl)methyl)benzyl)-3,9,15,21-tetraisobutyl-4,10,12,16,22,24-hexamethyl-1,7,13,19-tetraoxa-4,10,16,22-tetraazacyclotetracosan-2,5,8,11,14,17,20,23-octaone], the minimal effective concentration was less than 1 µM in assay [1] (setting [4]); 0.3 µM in assay [1] (setting [5]); no more than 1 µM in assay [1] (setting [6]); 5e-05 µM in assay [2]; 2e-05 µM in assay [3]. Moreover, the DiMf/DiL4 in assay [3] came to 2.5.
For the molecule `Cc1cc(F)ncc1Cc1ccc(C[C@H]2OC(=O)[C@H](CC(C)C)N(C)C(=O)[C@@H](C)OC(=O)[C@H](CC(C)C)N(C)C(=O)[C@@H](Cc3ccc(Cc4cnc(F)cc4C)cc3)OC(=O)[C@H](CC(C)C)N(C)C(=O)[C@@H](C)OC(=O)[C@H](CC(C)C)N(C)C2=O)cc1` [Example 3-322, (3S,6R,9S,12R,15S,18R,21S,24R)-6,18-bis(4-((6-fluoro-4-methylpyridin-3-yl)methyl)benzyl)-3,9,15,21-tetraisobutyl-4,10,12,16,22,24-hexamethyl-1,7,13,19-tetraoxa-4,10,16,22-tetraazacyclotetracosan-2,5,8,11,14,17,20,23-octaone], the minimal effective concentration stood at 10 µM in assay [1] (setting [5]), 0.01 µM in assay [2] and 0.0003 µM in assay [3]. Moreover, the DiMf/DiL4 in assay [3] was found to be 33.3.
As for `CC(C)C[C@H]1C(=O)O[C@H](Cc2ccc(Cc3cccnc3F)cc2)C(=O)N(C)[C@@H](CC(C)C)C(=O)O[C@H](C)C(=O)N(C)[C@@H](CC(C)C)C(=O)O[C@H](Cc2ccc(Cc3cccnc3F)cc2)C(=O)N(C)[C@@H](CC(C)C)C(=O)O[C@H](C)C(=O)N1C` [Example 3-323, (3S,6R,9S,12R,15S,18R,21S,24R)-6,18-bis(4-((2-fluoropyridin-3-yl)methyl)benzyl)-3,9,15,21-tetraisobutyl-4,10,12,16,22,24-hexamethyl-1,7,13,19-tetraoxa-4,10,16,22-tetraazacyclotetracosan-2,5,8,11,14,17,20,23-octaone], the minimal effective concentration in assay [1] (setting [4]) was less than 1 µM; in assay [1] (setting [5]), 0.3 µM; in assay [1] (setting [6]) it was no more than 1 µM; in assay [2], 0.001 µM; in assay [3], 0.0001 µM. Also, in assay [3], the DiMf/DiL4 turned out to be 10.
Take `CC(C)C[C@H]1C(=O)O[C@H](Cc2ccc(Cc3ccnc(F)c3F)cc2)C(=O)N(C)[C@@H](CC(C)C)C(=O)O[C@H](C)C(=O)N(C)[C@@H](CC(C)C)C(=O)O[C@H](Cc2ccc(Cc3ccnc(F)c3F)cc2)C(=O)N(C)[C@@H](CC(C)C)C(=O)O[C@H](C)C(=O)N1C` [Example 3-326, (3S,6R,9S,12R,15S,18R,21S,24R)-6,18-bis(4-((2,3-difluoropyridin-4-yl)methyl)benzyl)-3,9,15,21-tetraisobutyl-4,10,12,16,22,24-hexamethyl-1,7,13,19-tetraoxa-4,10,16,22-tetraazacyclotetracosan-2,5,8,11,14,17,20,23-octaone]: the minimal effective concentration came to 10 µM in assay [1] (setting [5]), 0.03 µM in assay [2] and 0.0003 µM in assay [3]. Besides, the DiMf/DiL4 in assay [3] came out at 100.
Turning to `CC(C)C[C@H]1C(=O)O[C@H](Cc2ccc(Cc3cccnc3Br)cc2)C(=O)N(C)[C@@H](CC(C)C)C(=O)O[C@H](C)C(=O)N(C)[C@@H](CC(C)C)C(=O)O[C@H](Cc2ccc(Cc3cccnc3Br)cc2)C(=O)N(C)[C@@H](CC(C)C)C(=O)O[C@H](C)C(=O)N1C` [Example 3-329, (3S,6R,9S,12R,15S,18R,21S,24R)-6,18-bis(4-((2-bromopyridin-3-yl)methyl)benzyl)-3,9,15,21-tetraisobutyl-4,10,12,16,22,24-hexamethyl-1,7,13,19-tetraoxa-4,10,16,22-tetraazacyclotetracosan-2,5,8,11,14,17,20,23-octaone], the minimal effective concentration was less than 1 µM in assay [1] (setting [4]), no more than 1 µM in assay [1] (setting [6]), 0.001 µM in assay [2] and 0.0001 µM in assay [3]. Moreover, the DiMf/DiL4 in assay [3] was found to be 10.
For `CC(C)C[C@H]1C(=O)O[C@H](Cc2ccc(Cc3cnccc3C(F)(F)F)cc2)C(=O)N(C)[C@@H](CC(C)C)C(=O)O[C@H](C)C(=O)N(C)[C@@H](CC(C)C)C(=O)O[C@H](Cc2ccc(Cc3cnccc3C(F)(F)F)cc2)C(=O)N(C)[C@@H](CC(C)C)C(=O)O[C@H](C)C(=O)N1C` [Example 3-333, (3S,6R,9S,12R,15S,18R,21S,24R)-3,9,15,21-tetraisobutyl-4,6,10,16,18,22-hexamethyl-12,24-bis(4-((4-(trifluoromethyl)pyridin-3-yl)methyl)benzyl)-1,7,13,19-tetraoxa-4,10,16,22-tetraazacyclotetracosan-2,5,8,11,14,17,20,23-octaone] the same measures were less than 1 µM, no more than 1 µM, 0.003 µM, 0.0002 µM and 17.
For the molecule `COc1nccc(Cc2ccc(C[C@H]3OC(=O)[C@H](CC(C)C)N(C)C(=O)[C@@H](C)OC(=O)[C@H](CC(C)C)N(C)C(=O)[C@@H](Cc4ccc(Cc5ccnc(OC)c5OC)cc4)OC(=O)[C@H](CC(C)C)N(C)C(=O)[C@@H](C)OC(=O)[C@H](CC(C)C)N(C)C3=O)cc2)c1OC` [Example 3-334, (3S,6R,9S,12R,15S,18R,21S,24R)-6,18-bis(4-((2,3-dimethoxypyridin-4-yl)methyl)benzyl)-3,9,15,21-tetraisobutyl-4,10,12,16,22,24-hexamethyl-1,7,13,19-tetraoxa-4,10,16,22-tetraazacyclotetracosan-2,5,8,11,14,17,20,23-octaone], the minimal effective concentration in assay [1] (setting [4]) was less than 1 µM; in assay [1] (setting [5]) it was 0.1 µM; in assay [1] (setting [6]), no more than 1 µM; in assay [2], 0.003 µM; in assay [3], 0.0003 µM. Also, the DiMf/DiL4 in assay [3] stood at 10.
As to `CC(C)C[C@H]1C(=O)O[C@H](Cc2ccc(Cc3ccc4cn[nH]c4c3)cc2)C(=O)N(C)[C@@H](CC(C)C)C(=O)O[C@H](C)C(=O)N(C)[C@@H](CC(C)C)C(=O)O[C@H](Cc2ccccc2)C(=O)N(C)[C@@H](CC(C)C)C(=O)O[C@H](C)C(=O)N1C` [Example 4-18, (3S,6R,9S,12R,15S,18R,21S,24R)-6-(4-((1H-indazol-6-yl)methyl)benzyl)-18-benzyl-3,9,15,21-tetraisobutyl-4,10,12,16,22,24-hexamethyl-1,7,13,19-tetraoxa-4,10,16,22-tetraazacyclotetracosan-2,5,8,11,14,17,20,23-octaone], the minimal effective concentration in assay [1] (setting [5]) was greater than 10 µM; in assay [2] it was 0.05 µM; in assay [3], 0.001 µM. Besides, the DiMf/DiL4 in assay [3] came out at 50.
For `Cc1c[nH]c(C)c1Cc1ccc(C[C@H]2OC(=O)[C@H](CC(C)C)N(C)C(=O)[C@@H](C)OC(=O)[C@H](CC(C)C)N(C)C(=O)[C@@H](Cc3ccccc3)OC(=O)[C@H](CC(C)C)N(C)C(=O)[C@@H](C)OC(=O)[C@H](CC(C)C)N(C)C2=O)cc1` [Example 4-19, (3S,6R,9S,12R,15S,18R,21S,24R)-6-benzyl-18-(4-((2,4-dimethyl-1H-pyrrol-3-yl)methyl)benzyl)-3,9,15,21-tetraisobutyl-4,10,12,16,22,24-hexamethyl-1,7,13,19-tetraoxa-4,10,16,22-tetraazacyclotetracosan-2,5,8,11,14,17,20,23-octaone] the same measures were greater than 10 µM, 0.1 µM, 0.001 µM and 100.
For `CC(C)C[C@H]1C(=O)O[C@H](Cc2ccc(C(O)c3coc4ccccc34)cc2)C(=O)N(C)[C@@H](CC(C)C)C(=O)O[C@H](C)C(=O)N(C)[C@@H](CC(C)C)C(=O)O[C@H](Cc2ccccc2)C(=O)N(C)[C@@H](CC(C)C)C(=O)O[C@H](C)C(=O)N1C` (stereo partly drawn) [Example 4-21, (3S,6R,9S,12R,15S,18R,21S,24R)-6-(4-(benzofuran-3-yl(hydroxy)methyl)benzyl)-18-benzyl-3,9,15,21-tetraisobutyl-4,10,12,16,22,24-hexamethyl-1,7,13,19-tetraoxa-4,10,16,22-tetraazacyclotetracosan-2,5,8,11,14,17,20,23-octaone] the same measures were greater than 10 µM, 0.05 µM, 0.001 µM and 50.
As for `CC(C)C[C@H]1C(=O)O[C@H](Cc2ccc(Cc3ncco3)cc2)C(=O)N(C)[C@@H](CC(C)C)C(=O)O[C@H](C)C(=O)N(C)[C@@H](CC(C)C)C(=O)O[C@H](Cc2ccccc2)C(=O)N(C)[C@@H](CC(C)C)C(=O)O[C@H](C)C(=O)N1C` [Example 4-30, (3S,6R,9S,12R,15S,18R,21S,24R)-6-benzyl-3,9,15,21-tetraisobutyl-4,10,12,16,22,24-hexamethyl-18-(4-(oxazol-2-ylmethyl)benzyl)-1,7,13,19-tetraoxa-4,10,16,22-tetraazacyclotetracosan-2,5,8,11,14,17,20,23-octaone], the minimal effective concentration in assay [1] (read-out: HcL3 MED (symbol after Ex#), approximately 96 hours incubation, multiple-resistant field isolate) was less than 1 µM; in assay [1] (setting [5]), 1 µM; in assay [1] (setting [6]), no more than 1 µM; in assay [2], 0.001 µM; in assay [3], 0.001 µM. Besides, the DiMf/DiL4 in assay [3] is reported as 1.
